In paper PMC7990224 (PLoS Pathogens, 2021):
“And” between values parts separate entries of the source, which are not always exact repeats. Equal values may be shown once.

Tested on: SARS-CoV-2 GFP/ΔN trVLP
Type: cell-based

Compound | IC50
CC(C)c1nc(CN(C)C(=O)N[C@H](C(=O)N[C@@H](Cc2ccccc2)C[C@H](O)[C@H](Cc2ccccc2)NC(=O)OCc2cncs2)C(C)C)cs1 [Ritonavir] | 7.54 µM
Cc1cccc(C)c1OCC(=O)N[C@@H](Cc1ccccc1)[C@@H](O)C[C@H](Cc1ccccc1)NC(=O)[C@H](C(C)C)N1CCCNC1=O [Lopinavir] | 8.7 µM and 8.75 µM
GC376 | 4.5 µM
CCC(CC)COC(=O)[C@H](C)N[P@](=O)(OC[C@H]1O[C@@](C#N)(c2ccc3c(N)ncnn23)[C@H](O)[C@@H]1O)Oc1ccccc1 [Remdesivir] | 0.0625 µM
